In US20250213564A1, “COMPOSITIONS AND METHODS FOR THE TREATMENT OF ALZHEIMER'S DISEASE AND OTHER NEUROGENERATIVE DISEASE” (priority 2022, published 2025):
Where a name gives a salt, the structure may show the parent alone.

What was measured:
[1] = tested on: Ctrl and APP/PS1 (AD) mice; assay: Marble burying (MB); assay type: in vivo; conditions: for percentage of marbles buried: 2-month-old female AD mice
Protocol: The MB assay was conducted in a clean cage (10.5 in×5.5 in) containing soft pliable Beta Chip bedding (Northeastern Products Corp, Warrensburg, NY). The cage contained 16 marbles set up in 4 rows of 4 across. Mice were given 20 minutes to explore and bury. At the end of the assay, the percentage of marbles buried was calculated.

[2] = tested on: Ctrl and APP/PS1 (AD) mice; assay: Contextual fear conditioning (CFC), 3-shock; assay type: in vivo; conditions: for memory retrieval: 2-month-old male AD mice; for learning (freezing during training): male AD mice
Protocol: A 3-shock CFC paradigm was administered as previously described (Denny et al., 2014; Drew et al., 2010). Fear conditioning was conducted in chambers obtained from Coulborn Instruments (Allentown, PA) with internal dimensions of approximately 20 cm wide×16 cm deep×20.5 cm high. The chambers had metal walls on each side, clear plastic front and back walls and ceilings, and stainless-steel bars on the floor. A house light (CM1820 bulb, 28 V, 100 mA) mounted directly above the chamber provided illumination. Each chamber was located inside a larger, insulated, plastic cabinet that provided protection from outside light and noise. Each cabinet contained a ventilation fan that was operated during the sessions. A paper towel dabbed with lemon solution was placed underneath the chamber floor. Mice were held outside the experimental room in their home cages prior to testing and transported to the conditioning apparatus individually in standard mouse cages. Chambers were cleaned with 70% EtOH between each set of mice. Training sessions were conducted using a 3-shock protocol. Mice were placed into the conditioning chamber and received shocks at 180 s, 240 s, and 300 s (2 s duration each, 0.75 mA). Fifteen seconds after the last shock, mice were removed from the chamber. Overall, the training session lasted 317 s. […] All sessions were scored for freezing using FreezeFrame4 (Actimetrics, Wilmette, IL).

[3] = tested on: Ctrl and APP/PS1 (AD) mice; conditions: male Ctrl mice; single injection; compared to Ctrl mice
Protocol: The APP/PS1 (AD) mice were previously bred with the ArcCreER^T2×enhanced yellow fluorescent protein (EYFP) mice (Denny et al., 2014; Perusini et al., 2017). Female and male mice were used in all experiments. The Ctrl mice were APP/PS1 (−)×ArcCreER^T2 (+) or (−)×EYFP (+/−), and the AD mice were APP/PS1 (+)×ArcCreER^T2 (+) or (−)×EYFP (+/−). Mice were housed 4-5 per cage in a 12-h (06:00-18:00) light-dark colony room at 22° C. Mice had ad libitum access to food and water.
All drugs were resuspended in saline and made fresh for each experiment. […] These dosages were chosen based upon previous studies (Brachman et al., 2016; Chen et al., 2020a). […] All drugs were prepared in physiological saline and administered intraperitoneally (i.p.) in volumes of 0.1 cc per 10 mg body weight.
Testing was performed as previously described (Brachman et al., 2016; Chen et al., 2020a). Briefly, the testing apparatus consisted of a plastic box (50×50×20 cm). The floor was covered with approximately 2 cm of wooden bedding and the arena was brightly lit (approximately 1000 lux). […] The latency of the mice to begin eating was recorded. Immediately after the latency was recorded, the food pellet was removed from the arena. The mice were then placed into their home cage and the amount of food consumed in 5 min was measured (home cage consumption), followed by an assessment of post-restriction weight. […]

[4] = mouse, in vivo
[5] = biological target: hERG (human Ether-a-go-go Related Gene) channels (Homo sapiens, UniProt Q12809); conditions: cited from earlier work
[6] = tested on: 5xFAD mouse model of Alzheimer's disease (AD); conditions: Giannoni et al., 2013; cited from earlier work

hERG (human Ether-a-go-go Related Gene) channels, sequence (Q12809 whole entry): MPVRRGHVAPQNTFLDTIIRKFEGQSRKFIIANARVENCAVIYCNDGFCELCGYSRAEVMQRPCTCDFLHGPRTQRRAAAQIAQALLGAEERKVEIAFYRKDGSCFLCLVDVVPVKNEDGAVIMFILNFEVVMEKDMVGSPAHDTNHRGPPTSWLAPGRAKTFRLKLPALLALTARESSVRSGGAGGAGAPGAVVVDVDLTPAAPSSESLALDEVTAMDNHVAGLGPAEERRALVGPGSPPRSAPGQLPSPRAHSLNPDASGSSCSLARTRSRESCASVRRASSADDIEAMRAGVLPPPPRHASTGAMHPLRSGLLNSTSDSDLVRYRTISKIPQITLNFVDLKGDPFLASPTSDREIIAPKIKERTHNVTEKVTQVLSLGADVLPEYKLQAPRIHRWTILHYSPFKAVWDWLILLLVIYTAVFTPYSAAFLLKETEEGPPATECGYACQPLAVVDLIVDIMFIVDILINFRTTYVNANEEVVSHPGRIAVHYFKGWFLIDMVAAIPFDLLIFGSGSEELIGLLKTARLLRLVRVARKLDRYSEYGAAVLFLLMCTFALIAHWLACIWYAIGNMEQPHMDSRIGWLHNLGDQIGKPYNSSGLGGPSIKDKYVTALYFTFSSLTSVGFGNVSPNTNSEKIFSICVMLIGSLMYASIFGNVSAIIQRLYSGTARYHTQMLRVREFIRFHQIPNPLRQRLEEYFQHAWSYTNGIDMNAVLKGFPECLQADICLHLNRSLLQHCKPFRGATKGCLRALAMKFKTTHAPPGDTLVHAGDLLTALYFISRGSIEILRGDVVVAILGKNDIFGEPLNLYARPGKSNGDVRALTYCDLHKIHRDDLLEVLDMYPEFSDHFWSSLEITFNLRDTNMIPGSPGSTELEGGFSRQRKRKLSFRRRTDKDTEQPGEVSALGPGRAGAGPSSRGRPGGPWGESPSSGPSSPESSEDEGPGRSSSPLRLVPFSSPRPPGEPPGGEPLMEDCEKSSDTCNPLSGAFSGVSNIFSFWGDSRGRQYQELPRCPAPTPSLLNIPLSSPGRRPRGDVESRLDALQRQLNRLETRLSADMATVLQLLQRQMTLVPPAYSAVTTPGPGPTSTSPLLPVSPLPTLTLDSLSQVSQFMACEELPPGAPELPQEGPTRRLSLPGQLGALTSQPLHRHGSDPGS

Structure (SMILES) | perseverative behavior (number of marbles buried) ([1]; female Ctrl mice, prophylactic administration, FIG. 3) | memory retrieval ([2]; 1×(R,S)-ketamine 30 mg/kg) | learning (freezing during training) ([2]; single injection) | freezing during training ([2]; male Ctrl mice, single injection, compared to other groups) | percentage of marbles buried ([1]; 7×prucalopride 1.5 mg/kg) | percentage of marbles buried ([1]; 7×prucalopride 3 mg/kg) | memory retrieval ([2]; 7×prucalopride 3 mg/kg) | latency to feed in home cage [3] | weight and weight loss [4] | affinity for the hERG channels [5] | behavioral deficits [6] | hippocampal astrogliosis and microgliosis [6] | number of amyloid plaques and level of amyloid beta (Aβ) species [6]
CNC1(c2ccccc2Cl)CCCCC1=O (racemic) [(R,S)-ketamine, (RS)-2-(2-chlorophenyl)-2-(methylamino)cyclohexanone] | decreased | improved | Neither (R,S)-ketamine nor prucalopride, whether administered solely or jointly, affected learning | increased | – | – | – | – | – | – | – | – | –
COCCCN1CCC(NC(=O)c2cc(Cl)c(N)c3c2OCC3)CC1 [prucalopride, 4-amino-5-chloro-2,3-dihydro-N-[1-3-methoxypropyl)-4-piperidinyl]-7-benzofuran carboxamide monohydrochloride] | – | – | Neither (R,S)-ketamine nor prucalopride, whether administered solely or jointly, affected learning | – | decreased | decreased | improved | more quickly | neither weight nor weight loss was impacted | no affinity | – | – | –
CCCCN1CCC(CCC(=O)c2cc(Cl)c(N)cc2OC)CC1.Cl [RS-67,333, 1-(4-amino-5-chloro-2-methoxyphenyl)-3-[1(n-butyl)-4-piperidinyl]-1-propanone HCl] | – | – | – | – | – | – | – | – | – | – | effective in improving | decreasing | decreasing
